The assay has as its system antibodies directed against NS3 (HCV) in sera. It is filed as binding, human.
[1] abbreviates: Sérum 1, NS3 positive, positivity threshold 2205.
[2] abbreviates: Sérum 2, NS3 positive, positivity threshold 3565.
The mark [3] stands for this setting: Sérum 3, NS3 positive, positivity threshold 4374.
Where [4] appears, read: Sérum 4, NS3 positive, positivity threshold 2774.
Where [5] appears, read: Sérum HCV-, positivity threshold 1271.

Where two headings read alike, the source gives them in different places.

Turning to AAKLSGLGIN [Peptide 11], the Fluorescence came to 2156 under setting [1]; 1557 under setting [2]; 1458 under setting [3]; 5283 under setting [4]; 628 under setting [5].
Take AIPLEAIKGG [Peptide 4]: the Fluorescence came to 2899 under setting [1]; 2988 under setting [2]; 2497 under setting [3]; 5598 under setting [4]; 1011 under setting [5].
Turning to DVSVIPTSGD [Peptide 19], the Fluorescence reads like this: under setting [1], 9088; under setting [2], 4111; under setting [3], 2337; under setting [4], 4939; under setting [5], 567.
Consider EAIKGGRHLL [Peptide 8], for which the Fluorescence by setting is: under setting [1], 2343; under setting [2], 1220; under setting [3], 1159; under setting [4], 2587; under setting [5], 525.
Turning to ELAAKLSGLG [Peptide 9], the Fluorescence was 1582 under setting [1]; 1142 under setting [2]; 1671 under setting [3]; 2418 under setting [4]; 508 under setting [5].
The corresponding values for GKAIPLEAIK [Peptide 2] are 3590, 8023, 3495, 7405 and 933.
For GLDVSVIPTS [Peptide 17] the same measures were 7976, 6423, 2619, 7338 and 754.
For GLGINAVAYY [Peptide 16], the Fluorescence came out at 4201 under setting [1]; 5577 under setting [2]; 1861 under setting [3]; 5602 under setting [4]; 931 under setting [5].
The sequence IPLEAIKGGR [Peptide 5] gave a Fluorescence under setting [1] of 2260; a Fluorescence under setting [2] of 2339; a Fluorescence under setting [3] of 1549; a Fluorescence under setting [4] of 4739; a Fluorescence under setting [5] of 945.
The corresponding values for IPTSGDVVVV [Peptide 23] are 2983, 3394, 1818, 4505 and 904.
The corresponding values for KAIPLEAIKG [Peptide 3] are 2803, 3161, 1694, 5065 and 924.
For LAAKLSGLGI [Peptide 10], the Fluorescence by setting is: under setting [1], 3166; under setting [2], 2418; under setting [3], 1684; under setting [4], 9152; under setting [5], 551.
The corresponding values for LDVSVIPTSG [Peptide 18] are 29857, 4113, 4824, 6209 and 667.
For LEAIKGGRHL [Peptide 7], the Fluorescence reads like this: under setting [1], 1845; under setting [2], 1307; under setting [3], 1084; under setting [4], 3077; under setting [5], 574.
For PLEAIKGGRH [Peptide 6] the same measures were 2789, 3136, 2821, 5932 and 957.
For PTSGDYVVVA [Peptide 24] the same measures were 1835, 1436, 1387, 3532 and 573.
For SGLGINAVAY [Peptide 15] the same measures were 17944, 10603, 4786, 8262 and 791.
Consider SVIPTSGDVV [Peptide 21], for which the Fluorescence under setting [1] is 3553; the Fluorescence under setting [2] came to 8321; the Fluorescence under setting [3] turned out to be 2244; the Fluorescence under setting [4] amounted to 6853; the Fluorescence under setting [5] is given as 913.
Regarding VIPTSGDVVV [Peptide 22], the Fluorescence is 1882 under setting [1]; 1466 under setting [2]; 1385 under setting [3]; 2963 under setting [4]; 648 under setting [5].
Take VSVIPTSGDV [Peptide 20]: the Fluorescence by setting is: under setting [1], 7909; under setting [2], 4711; under setting [3], 2873; under setting [4], 11266; under setting [5], 718.
On to YGKAIPLEAI [Peptide 1], for which the Fluorescence reads like this: under setting [1], 3735; under setting [2], 3143; under setting [3], 2608; under setting [4], 6357; under setting [5], 917.

These data come from patent US20040235049A1, “Device for presentation of polypeptides able to be used as a chip for miniaturised detection of molecules” (priority 2001, published 2004).
